Experimental data reported in publication PMC6629894, “Ruthenium Complexes Containing Heterocyclic Thioamidates Trigger Caspase-Mediated Apoptosis Through MAPK Signaling in Human Hepatocellular Carcinoma Cells” (Frontiers in Oncology, 2019).
Marks after values point to notes of the source that are not given here.

How the values were obtained:
B16-F10 (mouse melanoma) = assay: Alamar blue cytotoxicity assay, 72 h; assay type: cell-based
From the text: (§1) The cell lines HepG2 (human hepatocellular carcinoma), HL-60 (human promyelocytic leukemia), K-562 (human chronic myelogenous leukemia), B16-F10 (mouse melanoma), MCF-7 (human breast carcinoma), HCT116 (human colon carcinoma), HSC-3 (human oral squamous cell carcinoma), SCC-4 (human oral squamous cell carcinoma), MRC-5 (human lung fibroblast), WT SV40 MEF (wild-type immortalized mouse embryonic fibroblast), and BAD KO SV40 MEF (BAD gene knockout immortalized mouse embryonic fibroblasts) were obtained from the American Type Culture Collection (ATCC, Manassas, VA, USA). Cells were cultured in RPMI 1640 medium (Gibco-BRL, Gaithersburg, MD, USA) with 10% fetal bovine serum (Life, Carlsbad, CA, USA), 2 mM L-glutamine (Vetec Química Fina, Duque de Caxias, RJ, Brazil) and 50 μg/mL gentamycin (Life). For all experiments, adherent cells were collected by treatment with 0.25% trypsin-EDTA solution (Gibco-BRL). All cell lines were cultured in flasks at 37°C in 5% CO2 and were subcultured every 3–4 days to maintain exponential growth. All cell lines were tested for mycoplasma using a mycoplasma staining kit (Sigma-Aldrich Co.) to validate that the cells that were used were free from contamination.
(§2) Cytotoxicity was measured colorimetrically using an Alamar blue method that was performed as previously described ([20], [21]). Cells were seeded in 96-well plates for all experiments (7 × 10^4 cells/mL for adherent cells or 3 × 10^5 cells/mL for suspension cells in 100 μL of medium) and incubated overnight at 37°C with 5% CO2 to allow for adherence. The complexes were dissolved in 0.5% dimethyl sulfoxide (DMSO, Vetec Química Fina) at eight different concentrations from 0.19 to 25 μg/mL and were added to each well and incubated for 72 h. The negative control was treated with the vehicle (0.5% DMSO) that was used to solubilize and dilute the complexes. […] Four (for cell lines) or 24 h (for PBMCs) before the end of incubation, 20 μL of a stock solution (0.312 mg/mL) of resazurin (Sigma-Aldrich Co.) was added to each well. Absorbance was measured at 570 and 600 nm using a SpectraMax 190 Microplate Reader (Molecular Devices, Sunnyvale, CA, USA).

[1] = tested on: HepG2 (human hepatocellular carcinoma); assay: Alamar blue cytotoxicity assay, 72 h; assay type: cell-based
From the text: as §1, §2

[2] = tested on: K-562 (human chronic myelogenous leukemia); assay: Alamar blue cytotoxicity assay, 72 h; assay type: cell-based
From the text: as §1, §2

[3] = tested on: multicellular spheroids formed from HepG2 cells; assay: 3D multicellular spheroid culture, Alamar blue, 72 h; assay type: cell-based, human; details: Homo sapiens, read-out: IC50 and 95% CI, 3D HepG2 spheroids
Protocol: HepG2 cells were cultivated as 3D multicellular spheroids in a 96-well plate with a cell-repellent surface. Briefly, 100 μL of a suspension of cells (5 × 10^5 cells/mL) was seeded into a 96-well plate with a cell-repellent surface (Greiner Bio-One, Kremsmünster, Austria) and cultured in RPMI 1640 medium with 10% fetal bovine serum, 2 mM glutamine plus 3% Matrigel (BD Biosciences, San Jose, CA, EUA) and 50 μg/mL gentamycin at 37°C with 5% CO2. Spheroids with stable structures formed after 3 days. Then, the complexes were dissolved in 0.5% DMSO at eight different concentrations from 0.19 to 25 μg/mL, were added to each well and incubated for 72 h. […] At the end of the experiment, morphological changes were examined by light microscopy (Olympus BX41, Tokyo, Japan) using Image-Pro software (Media Cybernetics, Inc. Silver Spring, USA), and cytotoxicity was quantified with the Alamar blue method as described above.

[4] = tested on: WT SV40 MEF (wild-type immortalized mouse embryonic fibroblast); assay: Alamar blue cytotoxicity assay, 72 h; assay type: cell-based; details: Mus musculus, Fibroblast, read-out: IC50 and 95% CI
[5] = tested on: BAD KO SV40 MEF (BAD gene knockout immortalized mouse embryonic fibroblasts); assay: Alamar blue cytotoxicity assay, 72 h; assay type: cell-based; details: Mus musculus, Fibroblast, read-out: IC50 and 95% CI
HepG2 cells = assay: Trypan blue exclusion assay; assay type: cell-based, human; details: 2 μM
Protocol: For all subsequent in vitro experiments, 2 mL of a suspension of HepG2 cells were seeded (7 × 10^4 cells/mL) and incubated in a 24-well plate overnight to allow the cells to adhere to the plate surface.
In the trypan blue exclusion assay, the number of viable cells and non-viable cells (stained with trypan blue) were counted. Briefly, 90 μL was removed from the cell suspension, and 10 μL of trypan blue (0.4%) was added. Cell counting was performed using a light microscope with a hemocytometer filled with an aliquot of the homogenized cell suspension.

[6] = tested on: HepG2 cells engrafted in C.B-17 SCID mice; assay: Human hepatocellular carcinoma xenograft model; assay type: in vivo; details: 0.3 mg/kg/day i.p., 21 days
Protocol: A total of 64 C.B-17 severe-combined immunodeficiency (SCID) mice (females, 25–30 g) were obtained and maintained at the animal facilities from Gonçalo Moniz Institute-FIOCRUZ (Salvador, Bahia, Brazil). Animals were housed in cages with free access to food and water. All animals were kept under a 12:12-h light-dark cycle (lights on at 6:00 a.m.). The animals were treated according to the ethical principles for animal experimentation of SBCAL (Brazilian Association of Laboratory Animal Science), Brazil. The Animal Ethics Committee of Gonçalo Moniz Institute–FIOCRUZ (Salvador, Bahia, Brazil) approved the experimental protocol (number 06/2015). Animal welfare was monitored throughout the study, and the pain and suffering were minimized.

[7] = peripheral blood, 0.3 mg/kg/day, 21 days

Q: Which “Selectivity index (SI = IC50 [noncancerous cells]/IC50 [cancer cells])” value (from here on “Selectivity index”) (B16-F10 (mouse melanoma); MRC-5 vs B16-F10) does the source give for `COc1cccc2c1C(=O)c1c(O)c3c(c(O)c1C2=O)C[C@@](O)(C(=O)CO)C[C@@H]3O[C@H]1C[C@H](N)[C@H](O)[C@H](C)O1` [Doxorubicin, reference compound] here?
A: Its value is 2.0.

Q: And the IC50 (B16-F10 (mouse melanoma); Mus musculus, B16-F10, 72 h, read-out: IC50 and 95% CI)?
A: The IC50 was 200 nM.

Q: And the “Selectivity index” value (B16-F10 (mouse melanoma); PBMCs vs B16-F10)?
A: Its value is 12.5.

Q: What about the “Selectivity index” value ([1]; MRC-5 vs HepG2) of the same molecule?
A: Its value is 1.3.

Q: What about the “Selectivity index” value ([1]; PBMCs vs HepG2) of the same molecule?
A: The value was 8.3.

Q: And the “Selectivity index” value ([2]; MRC-5 vs K-562)?
A: Its value is 0.4.

Q: And the “Selectivity index” value ([2]; PBMCs vs K-562)?
A: The value was 2.8.

Q: What about the IC50 [3] of the same molecule?
A: The IC50 was 10300 nM.

Q: And the IC50 [4]?
A: Its IC50 is 40 nM.

Q: What about the IC50 [5] of the same molecule?
A: Its IC50 is 400 nM.

Q: What about the “reduction of the number of viable cells vs negative control” value (HepG2 cells; 24 h) of the same molecule?
A: The value was 53.1%.

Q: And the “reduction of the number of viable cells vs negative control” value (HepG2 cells; 48 h)?
A: Its value is 74.7%.

Q: What about the “reduction of tumor weight vs negative control” value [6] of the same molecule?
A: Its value is 36.8%.

Q: And the Initial body weight (0.3 mg/kg/day)?
A: Its Initial body weight is 22.3 ± 0.4 g.

Q: And the Final body weight (0.3 mg/kg/day i.p., 21 days)?
A: Its Final body weight is 19.5 ± 0.6 g.

Q: What about the Heart relative weight (0.3 mg/kg/day i.p., 21 days) of the same molecule?
A: Its Heart relative weight is 0.5 ± 0.02 g/100 g body weight.

Q: What about the Kidney relative weight (0.3 mg/kg/day i.p., 21 days) of the same molecule?
A: The Kidney relative weight was 1.5 ± 0.04 g/100 g body weight.

Q: What about the Liver relative weight (0.3 mg/kg/day i.p., 21 days) of the same molecule?
A: Its Liver relative weight is 4.8 ± 0.1 g/100 g body weight.

Q: And the Lung relative weight (0.3 mg/kg/day i.p., 21 days)?
A: The Lung relative weight was 0.9 ± 0.06 g/100 g body weight.

Q: And the “Differential leukocytes: Eosinophils” value [7]?
A: The value was 1.0%.

Q: And the “Differential leukocytes: Lymphocytes” value [7]?
A: The value was 49.3%.

Q: What about the “Differential leukocytes: Monocytes” value [7] of the same molecule?
A: Its value is 1.0%.

Q: What about the “Differential leukocytes: Neutrophils” value [7] of the same molecule?
A: The value was 48.8%.

Q: And the Erythrocytes [7]?
A: The Erythrocytes was 8.9 ± 0.7 10^6cells/μL.

Q: What about the Total leukocytes [7] of the same molecule?
A: The Total leukocytes was 1.5 ± 0.2* 10^3cells/μL.
